Each block holds one molecule with its values, some of them ahead of it.
Experiments:
[1] = Nude mouse PK study with adagrasib and DCC-3116 treatment; format: in vivo; conditions: for AUC(0-t) / Cmax: female, athymic nude, mouse, plasma, po; for AUC(0-t): read-out: adagrasib AUC0-2 h (average); for Cmax: read-out: adagrasib Cmax in plasma (average)
Method: The nude mouse PK study was performed at Attentive Science (Stilwell, KS), an AAALAC accredited facility. Food and water were provided ad libitum. […] Female athymic nude mice (n=3 per group) were dosed for 5 consecutive days. […] At 0, 0.5, and 2 h post final dose blood samples were collected from mice from each group. Blood samples were collected in K2EDTA tubes and processed into plasma, then stored at −20° C. Plasma samples were subjected to pharmacokinetic analysis using liquid chromatography coupled with tandem mass spectrometry analysis.

[2] = MiaPaca-2 xenograft PK/PD model: sotorasib plasma PK with DCC-3116; format: in vivo, mouse; conditions: for AUC(0-t) / Cmax: female, Envigo Nude, mouse, plasma, po, 10 mg/kg
Method: The MiaPaca-2 xenograft model was performed in compliance with all the laws, regulations and guidelines of the National Institutes of Health (NIH) and with the approval of the Animal Care and Use Committee of Labcorp (Ann Arbor, MI), an AAALAC accredited facility. Food and water were provided ad libitum. […] Female Envigo Nude mice (6-7 weeks old) were inoculated subcutaneously just below the right high axilla with ten million cells in Dulbecco's Phosphate Buffered Saline with 50% Matrigel, using a 27-gauge needle and syringe. When tumor burdens reached 182 mm^3 on average on day 6, mice were randomly assigned into groups such that the mean tumor burden for all groups was within 10% of the overall mean tumor burden for the study population. […] At 2 h post final dose in the vehicle group, and 2, 6, and 10 h post final dose in the treatment groups, 3 mice from each group were sacrificed for tumor and plasma sampling. Blood samples were collected in K2EDTA tubes and processed into plasma, snap frozen in liquid nitrogen then stored at −80° C. Plasma samples were subjected to pharmacokinetic analysis using liquid chromatography coupled with tandem mass spectrometry analysis (Cayman Chemical, Ann Arbor, MI). Tumors were harvested and powdered over liquid nitrogen in covaris bags and stored at −80° C.

ULK = assay: pATG13 ELISA in GIST-T1 cells, DCC-3116 with binimetinib and/or ripretinib; format: cell-based; conditions: GIST-T1 cell line, FIG. 10
Method: A substrate solution for HRP was added and the absorbance was measured using a plate reader. Data was plotted in GraphPad Prism and fit to a sigmoidal dose response curve to generate IC50 values.

[3] = 25 mg/kg, adagrasib in combination with 25 mg/kg DCC-3116 (first statement)
[4] = 25 mg/kg, adagrasib in combination with 25 mg/kg DCC-3116 (second statement)
[5] = 100 mg/kg, adagrasib 100 mg/kg PO QD single agent, 5 days
[6] = 10 mg/kg sotorasib + 10 mg/kg DCC-3116
[7] = 10 mg/kg sotorasib + 25 mg/kg DCC-3116
[8] = 10 mg/kg sotorasib + 100 mg/kg DCC-3116
[9] = 10 mg/kg sotorasib as a single agent

differences in adagrasib Cmax and AUC0-2 h amongst groups ([1]; adagrasib alone versus with DCC-3116): not statistically significant | AUC(0-t) [1, 3]: 2970 ng·h/mL | Cmax [1, 3]: 1880 ng/mL | AUC(0-t) [1, 4]: 3560 ng·h/mL | Cmax [1, 4]: 2060 ng/mL | AUC(0-t) [1, 5]: 4230 ng·h/mL | Cmax [1, 5]: 2530 ng/mL
Compound: C=C(F)C(=O)N1CCN(c2nc(OC[C@@H]3CCCN3C)nc3c2CCN(c2cccc4cccc(Cl)c24)C3)C[C@@H]1CC#N [adagrasib, reference compound]

AUC(0-t) [2, 6]: 344 ng·h/mL | Cmax [2, 6]: 76 ng/mL | AUC(0-t) [2, 7]: 727 ng·h/mL | Cmax [2, 7]: 170 ng/mL | AUC(0-t) [2, 8]: 385 ng·h/mL | Cmax [2, 8]: 74 ng/mL | AUC(0-t) [2, 9]: 963 ng·h/mL | Cmax [2, 9]: 296 ng/mL | differences in sotorasib Cmax and AUC0-10 h amongst groups ([2]; sotorasib alone versus with DCC-3116): not statistically significant
Compound: C=CC(=O)N1CCN(c2nc(=O)n(-c3c(C)ccnc3C(C)C)c3nc(-c4c(O)cccc4F)c(F)cc23)[C@@H](C)C1 [sotorasib]

Compound: Cn1cnc2c(F)c(Nc3ccc(Br)cc3F)c(C(=O)NOCCO)cc21 [binimetinib]
effect on ULK activity (ULK): induces ULK Activity
